From patent US7229999B2, “Pyridine-3-carboxamide derivatives as CB1 inverse agonists” (Hoffmann-La Roche Inc., priority 2005, dated 2007)
Where two headings read alike, the source gives them in different places.

Columns and labels:
[1] = target: T1, human cannabis CB1 receptor (Homo sapiens, UniProt P21554); experiment: Affinity for cannabinoid CB1 receptors, [3H]-CP-55,940 radioligand binding on HEK cell membranes
T1 construct: expressed in transfected cells; host or cells: human embryonic kidney (HEK) cells, transient, Semliki Forest Virus system
T1 sequence (P21554 whole entry): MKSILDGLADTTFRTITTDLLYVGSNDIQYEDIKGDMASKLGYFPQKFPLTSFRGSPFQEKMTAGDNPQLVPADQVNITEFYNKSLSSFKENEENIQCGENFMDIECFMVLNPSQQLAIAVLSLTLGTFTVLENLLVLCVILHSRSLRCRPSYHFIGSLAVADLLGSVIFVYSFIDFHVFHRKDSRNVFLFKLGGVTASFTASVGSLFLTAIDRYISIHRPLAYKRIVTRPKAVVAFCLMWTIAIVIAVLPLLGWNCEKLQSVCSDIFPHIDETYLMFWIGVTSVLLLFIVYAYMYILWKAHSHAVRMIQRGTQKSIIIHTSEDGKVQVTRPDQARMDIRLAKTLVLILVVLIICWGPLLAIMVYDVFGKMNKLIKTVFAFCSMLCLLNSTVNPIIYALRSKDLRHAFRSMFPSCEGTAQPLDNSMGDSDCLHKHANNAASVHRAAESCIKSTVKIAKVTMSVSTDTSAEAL
Procedure: The affinity of the compounds of the invention for cannabinoid CB1 receptors was determined using membrane preparations of human embryonic kidney (HEK) cells in which the human cannabis CB1 receptor is transiently transfected using the Semliki Forest Virus system in conjunction with [3H]-CP-55,940 as radioligand. After incubation of a freshly prepared cell membrane preparation with the [3H]-ligand, with or without addition of compounds of the invention, separation of bound and free ligand was performed by filtration over glassfiber filters. Radioactivity on the filter was measured by liquid scintillation counting.

[2] = doses of 10 and 20 mg daily; cited from earlier work

CCCCOc1ncc(C(=O)N[C@@H]2CCCC[C@H]2O)cc1-c1cc(C(F)(F)F)ccc1F [Example 2, 6-Butoxy-5-(2-fluoro-5-trifluoromethyl-phenyl)-N-((1R,2R)-2-hydroxy-cyclohexyl)-nicotinamide]
IC50 ([1]; affinity for the CB1 receptor, read-out: IC50): 186 nM | melting point: 172 to 178 °C

CCCCOc1ncc(C(=O)N[C@@H]2CCCC[C@H]2O)cc1-c1ccc(Cl)cc1 [Example 3, 6-Butoxy-5-(4-chloro-phenyl)-N-((1R,2R)-2-hydroxy-cyclohexyl)-nicotinamide]
IC50 [1]: 39 nM

O=C(N[C@@H]1CCCC[C@H]1O)c1cnc(OCC2CC2)c(-c2cc(C(F)(F)F)ccc2F)c1 [Example 7, 6-Cyclopropylmethoxy-5-(2-fluoro-5-trifluoromethyl-phenyl)-N-((1R,2R)-2-hydroxy-cyclohexyl)-nicotinamide]
IC50 [1]: 102 nM

Cc1c(C(=O)NN2CCCCC2)nn(-c2ccc(Cl)cc2Cl)c1-c1ccc(Cl)cc1 [SR 141716]
body weight compared to placebo [2]: significantly reduced body weight
